Among the data in article PMC4621749 (The Journal of General Physiology, 2015) are EC50 values, retold here.

This test deals with T1, frog TRPV3 (Xenopus tropicalis TRPV3) (Xenopus tropicalis, UniProt F6UZP3).
T1 sequence (F6UZP3 1-773): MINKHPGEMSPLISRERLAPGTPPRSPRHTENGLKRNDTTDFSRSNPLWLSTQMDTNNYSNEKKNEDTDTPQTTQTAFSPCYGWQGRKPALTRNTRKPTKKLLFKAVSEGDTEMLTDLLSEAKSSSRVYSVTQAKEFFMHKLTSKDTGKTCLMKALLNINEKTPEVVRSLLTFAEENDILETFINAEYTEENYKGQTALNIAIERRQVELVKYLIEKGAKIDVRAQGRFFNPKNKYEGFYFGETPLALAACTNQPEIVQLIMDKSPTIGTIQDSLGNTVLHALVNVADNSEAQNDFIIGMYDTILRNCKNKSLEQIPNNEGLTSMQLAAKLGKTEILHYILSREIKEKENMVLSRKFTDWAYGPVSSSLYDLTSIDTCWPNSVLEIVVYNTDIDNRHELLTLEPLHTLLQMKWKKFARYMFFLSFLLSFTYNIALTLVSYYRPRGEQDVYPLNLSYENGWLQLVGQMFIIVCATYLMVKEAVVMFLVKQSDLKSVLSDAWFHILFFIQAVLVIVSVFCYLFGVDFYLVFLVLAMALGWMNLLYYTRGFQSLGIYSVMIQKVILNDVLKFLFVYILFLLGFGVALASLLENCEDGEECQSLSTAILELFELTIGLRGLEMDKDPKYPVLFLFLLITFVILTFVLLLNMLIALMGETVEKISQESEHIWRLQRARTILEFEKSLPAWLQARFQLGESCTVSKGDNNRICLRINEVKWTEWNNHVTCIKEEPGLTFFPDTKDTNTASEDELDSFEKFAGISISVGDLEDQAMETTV
Nature of the test: whole-cell patch clamp, HEK293, Hill fit of current density. In kind it is cell-based. On the technique in general: In patch-clamp work, channel activity is measured electrically.

By EC50 is commonly meant the concentration at which the effect is half-maximal. `NCCOB(c1ccccc1)c1ccccc1` [2-APB] displayed an EC50 of 269 ± 28 µM.
